The assay relates to P388 leukemia ip, CD2F1 mice, survival T/C. In words: NCI In Vivo Anticancer Drug Screen. Data for tumor model P388 Leukemia (intraperitoneal) in CD2F1 (CDF1) mice. The note with it: endpoint: median survival time, higher = longer survival. In a few lines: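 Mice carrying the transplanted tumor received test compound or vehicle. Survival was recorded in each group, and the value is the treated-group measurement divided by that of the vehicle-treated control group.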

Where [1] appears, read: dose: 25.0 mg/kg/injection, schedule: Q01DX005 (ip), vehicle: Klucel (hydroxypropylcellulose) (HPC).
[2] abbreviates: dose: 50.0 mg/kg/injection, schedule: Q01DX005 (ip), vehicle: Klucel (hydroxypropylcellulose) (HPC).
The mark [3] stands for this setting: dose: 100.0 mg/kg/injection, schedule: Q01DX005 (ip), vehicle: Klucel (hydroxypropylcellulose) (HPC).
[4] abbreviates: dose: 100.0 mg/kg/injection, schedule: Q01DX005 (ip), vehicle: saline with Tween-80.
[5] abbreviates: dose: 50.0 mg/kg/injection, schedule: Q01DX005 (ip), vehicle: saline with Tween-80.
[6] abbreviates: dose: 200.0 mg/kg/injection, schedule: Q01DX005 (ip), vehicle: saline with Tween-80.
Where [7] appears, read: dose: 60.0 mg/kg/injection, schedule: Q01DX005 (ip), vehicle: saline with Tween-80.
The mark [8] stands for this setting: dose: 120.0 mg/kg/injection, schedule: Q01DX005 (ip), vehicle: saline with Tween-80.
[9] abbreviates: dose: 240.0 mg/kg/injection, schedule: Q01DX005 (ip), vehicle: saline with Tween-80.
[10] abbreviates: dose: 100.0 mg/kg/injection, schedule: Q01DX009 (ip), vehicle: saline with Tween-80.
Where [11] appears, read: dose: 200.0 mg/kg/injection, schedule: Q01DX009 (ip), vehicle: saline with Tween-80.

“And” between values parts separate entries of the source, which are not always exact repeats. Equal values may be shown once. Toxic doses and inconclusive results are not listed.

As for `C=C1C(=O)[C@@]23CC1C(O)[C@@H](OC(C)=O)[C@@H]2C1(C)C(OC(C)=O)C[C@@H](OC(C)=O)C(C)(C)[C@@H]1C[C@H]3OC(C)=O` (stereo partly drawn), the T/C runs as follows: under setting [1], 102 % of control; under setting [2], 117 % of control.
In the case of `O=C(N/N=C/c1cc(Br)cc(Br)c1[O-])c1ccccc1.O=C(N/N=C/c1cc(Br)cc(Br)c1[O-])c1ccccc1.[Cu+2]`, the T/C (dose: 12.5 mg/kg/injection, schedule: Q01DX001 (ip), vehicle: saline with Tween-80) is 91 % of control; the T/C (dose: 25.0 mg/kg/injection, schedule: Q01DX001 (ip), vehicle: saline with Tween-80) is 89 % of control; the T/C (dose: 50.0 mg/kg/injection, schedule: Q01DX001 (ip), vehicle: saline with Tween-80) was 100 % of control.
Take `C#CC(=O)O`: the T/C runs as follows: (dose: 6.25 mg/kg/injection, schedule: Q01DX009 (ip), vehicle: saline with Tween-80) 111 % of control; (dose: 12.5 mg/kg/injection, schedule: Q01DX009 (ip), vehicle: saline with Tween-80) 95 % of control; (dose: 25.0 mg/kg/injection, schedule: Q01DX009 (ip), vehicle: saline with Tween-80) 92 % of control.
With `NC(=O)C(CC(=O)O)NC(=O)OCc1ccccc1` (stereo not drawn), the T/C reads like this: (dose: 4.0 mg/kg/injection, schedule: Q01DX009 (ip), vehicle: other) 100 % of control; (dose: 8.0 mg/kg/injection, schedule: Q01DX009 (ip), vehicle: other) 114 % of control; (dose: 16.0 mg/kg/injection, schedule: Q01DX009 (ip), vehicle: other) 101 % of control; (dose: 32.0 mg/kg/injection, schedule: Q01DX009 (ip), vehicle: other) 98 % of control; (dose: 50.0 mg/kg/injection, schedule: Q01DX009 (ip), vehicle: other) 96 % of control; (dose: 64.0 mg/kg/injection, schedule: Q01DX009 (ip), vehicle: other) 91 % of control. Further, the T/C is, setting by setting: (dose: 100.0 mg/kg/injection, schedule: Q01DX009 (ip), vehicle: other) 90 % of control; (dose: 150.0 mg/kg/injection, schedule: Q01DX009 (ip), vehicle: other) 109 % of control; (dose: 200.0 mg/kg/injection, schedule: Q01DX009 (ip), vehicle: other) 105 % of control; (dose: 400.0 mg/kg/injection, schedule: Q01DX009 (ip), vehicle: other) 113 % of control.
On to `O=[N+]([O-])c1ccccc1N/N=C\c1cccc2c(/C=N/Nc3ccccc3[N+](=O)[O-])c(Cl)n(-c3ccccc3)c12`, for which the T/C (dose: 200.0 mg/kg/injection, schedule: Q01DX001 (ip), vehicle: Klucel (hydroxypropylcellulose) (HPC)) is 88 % of control.
For the molecule `CC(=O)N(CCCCCCN(C(C)=O)C(C)=O)C(C)=O`, the T/C is 96 % of control under setting [2]; 105 % of control under setting [3]; 92 % of control (dose: 200.0 mg/kg/injection, schedule: Q01DX005 (ip), vehicle: Klucel (hydroxypropylcellulose) (HPC)); 94 % of control (dose: 400.0 mg/kg/injection, schedule: Q01DX005 (ip), vehicle: Klucel (hydroxypropylcellulose) (HPC)).
Turning to `COc1cc2c[n+](C)c3c(c2cc1OC)Cc1cc2c(cc1-3)OCO2`, the T/C by setting is: (dose: 25.0 mg/kg/injection, schedule: Q01DX005 (ip), vehicle: saline with Tween-80) 151 % of control; (dose: 50.0 mg/kg/injection, schedule: Q01DX005 (ip), vehicle: saline) 174 % of control; under setting [4], 168 % of control.
Regarding `Cc1ccc(-c2c(Br)c(OC(=O)CO[C@@H]3C[C@H](C)CC[C@H]3C(C)C)c(-c3ccc(C)cc3C)c(Br)c2OC(=O)CO[C@H]2C[C@@H](C)CC[C@@H]2C(C)C)c(C)c1`, the T/C under setting [5] is 95 % of control, the T/C under setting [4] was 88 % of control and the T/C under setting [6] is 88 % of control.
As to `COc1cccc(CN2CCN(N)CC2)c1`, the T/C is 100 % of control (dose: 12.5 mg/kg/injection, schedule: Q01DX005 (ip), vehicle: Klucel (hydroxypropylcellulose) (HPC)); 104 % of control under setting [1]; 107 % of control under setting [2]; 100 % of control under setting [3].
On to `C1CSCCCSCCCSCCCSC1`, for which the T/C was 100 % of control (dose: 50.0 mg/kg/injection, schedule: Q01DX009 (ip), vehicle: Klucel (hydroxypropylcellulose) (HPC)); 99 % of control (dose: 100.0 mg/kg/injection, schedule: Q01DX009 (ip), vehicle: Klucel (hydroxypropylcellulose) (HPC)); 100 % of control (dose: 200.0 mg/kg/injection, schedule: Q01DX009 (ip), vehicle: Klucel (hydroxypropylcellulose) (HPC)).
On to `Cc1cn(Cc2ccc(Cl)cc2Cl)c(C)n1`, for which the T/C is, setting by setting: (dose: 15.0 mg/kg/injection, schedule: Q01DX005 (ip), vehicle: saline with Tween-80) 100 % of control; (dose: 30.0 mg/kg/injection, schedule: Q01DX005 (ip), vehicle: saline with Tween-80) 107 % of control; under setting [7], 100 % of control and 108 % of control.
Turning to `CC(/C=N/Nc1ccccc1)=N\N=c1/scc(-c2ccc(Cl)cc2)n1-c1ccc(Cl)cc1`, the T/C is, setting by setting: under setting [5], 86 % of control; under setting [4], 92 % of control; under setting [6], 94 % of control.
For `Cc1cc(Nc2cc(=O)[nH]c(=O)[nH]2)ccc1N`, the T/C is 97 % of control under setting [7], 97 % of control under setting [8] and 93 % of control under setting [9].
Turning to `COC(=O)CC1CC(CCO)=C(C)C1=O` (stereo not drawn), the T/C runs as follows: (dose: 60.0 mg/kg/injection, schedule: Q01DX005 (ip), vehicle: saline) 101 % of control; (dose: 120.0 mg/kg/injection, schedule: Q01DX005 (ip), vehicle: saline) 99 % of control; (dose: 240.0 mg/kg/injection, schedule: Q01DX005 (ip), vehicle: saline) 100 % of control.
Regarding `COc1cc2c(cc1O)CCCC=C2C1CCCCc2cc(O)c(OC)cc21` (stereo not drawn), the T/C is 104 % of control under setting [10]; 94 % of control under setting [11]; 91 % of control (dose: 400.0 mg/kg/injection, schedule: Q01DX009 (ip), vehicle: saline with Tween-80).
Consider `O=C1CSC(c2ccc(F)cc2)N1CCN1C(=O)CSC1c1ccc(F)cc1` (stereo not drawn), for which the T/C is, setting by setting: under setting [7], 106 % of control; under setting [8], 100 % of control; under setting [9], 95 % of control.
Consider `CC(C)(C)N=C(CCNC1CCCCC1)Nc1ccccc1Cl`, for which the T/C (dose: 50.0 mg/kg/injection, schedule: Q01DX009 (ip), vehicle: saline with Tween-80) is 100 % of control; the T/C under setting [10] was 109 % of control; the T/C under setting [11] was 101 % of control.
With `CN(C)C(=O)Nc1nc2cc(Cl)c(Cl)cc2[nH]1`, the T/C reads like this: (dose: 200.0 mg/kg/injection, schedule: Q04DX003 (oral), vehicle: saline with Tween-80) 102 % of control; (dose: 400.0 mg/kg/injection, schedule: Q04DX003 (oral), vehicle: saline with Tween-80) 117 % of control; (dose: 800.0 mg/kg/injection, schedule: Q04DX003 (oral), vehicle: saline with Tween-80) 112 % of control; (dose: 1600.0 mg/kg/injection, schedule: Q04DX003 (oral), vehicle: saline with Tween-80) 121 % of control.
Consider `N#CC(/C=C/c1ccccc1)(NO)Nc1cccc(Cl)c1` (stereo not drawn), for which the T/C under setting [7] is 116 % of control and the T/C under setting [8] is 114 % of control.

Source of the values: PubChem BioAssay AID330 (DTP/NCI, 2004).
